Laboratory results reported in publication PMC9923772 (ACS chemical neuroscience, 2020).
Counter-ions that a name gives are not always drawn. Like-named read-outs stand apart in the source and are kept apart here.

Columns and labels:
human KOR [1] = biological target: T1, human KOR (Homo sapiens, UniProt P41145); assay: [35S]-GTPγS binding assay, CHO-KOR membranes; format: biochemical; conditions: for Potency, EC50 KOR: [35S]GTPγS stimulation; for Potency, EC50 KOR / Efficacy KOR, percent maximal stimulation / Efficacy (% Stimulation) KOR: DNS = does not stimulate; for Efficacy KOR, percent maximal stimulation: Table 3; for Efficacy KOR, percent maximal stimulation / Efficacy (% Stimulation) KOR: relative to U69,593 at 10 μM
human DOR [2] = biological target: T2, human DOR (Homo sapiens, UniProt P41143); assay: biochemical; conditions: for Emax: read-out: Efficacy DOR, percent maximal stimulation; for Efficacy (% Stimulation) DOR / Efficacy DOR, percent maximal stimulation: relative to DPDPE at 10 μM; for Efficacy (% Stimulation) DOR / Efficacy DOR, percent maximal stimulation / Potency EC50 DOR: DNS = does not stimulate; for Efficacy DOR, percent maximal stimulation: Table 3; for Potency EC50 DOR: [35S]GTPγS stimulation
human KOR [3] = biological target: T1, human KOR; format: binding
human MOR [4] = biological target: T3, human MOR (Homo sapiens, UniProt P35372); assay: biochemical; conditions: for Emax: read-out: Efficacy (% Stimulation) MOR, Table 5; for Emax / Efficacy (% Stimulation) MOR: relative to DAMGO at 10 μM
human MOR [5] = biological target: T3, human MOR; assay: biochemical; format: binding
human DOR [6] = biological target: T2, human DOR; assay: biochemical; format: binding

Row | Structure (SMILES) | Efficacy KOR, percent maximal stimulation (human KOR [1]) | Emax (human DOR [2]) | Ki (human KOR [3]) | Emax (human MOR [4]) | Efficacy (% Stimulation) KOR (human KOR [1]; Table 5) | Efficacy (% Stimulation) DOR (human DOR [2]; Table 5) | EC50 (human MOR [4]) | Ki (human MOR [5]) | further results
1 | COc1ccc(CN2CCCCC2)cc1CNC(=O)[C@@H](N)Cc1c(C)cc(O)cc1C.O=C(O)C(F)(F)F [B, (S)-3-(4-Hydroxy-2,6-dimethylphenyl)-1-((2-methoxy-5-(piperidin-1-ylmethyl)benzyl)amino)-1-oxopropan-2-aminium Trifluoroacetate] | DNS | 37.2 ± 6.2% | 23.5 ± 7.3 nM | – | – | – | – | – | Potency, EC50 KOR (human KOR [1]; Table 2): DNS
2 | Cc1cc(O)cc(C)c1C[C@H](N)C(=O)NCC(=O)NCCN1CCc2ccccc2C1.O=C(O)C(F)(F)F [P, (S)-1-((2-((2-(3,4-Dihydroisoquinolin-2(1H)-yl)ethyl)amino)-2-oxoethyl)amino)-3-(4-hydroxy-2,6-dimethylphenyl)-1-oxopropan-2-aminium Trifluoroacetate] | – | – | – | 86.6 ± 3.3% | DNS | 36.5±1.2% | – | – | –
3 | Cc1cc(O)cc(C)c1C[C@H](N)C(=O)NCc1cccc(CN2CCc3ccccc3C2)c1.O=C(O)C(F)(F)F [E, (S)-1-((3-((3,4-Dihydroisoquinolin-2(1H)-yl)methyl)benzyl)amino)-3-(4-hydroxy-2,6-dimethylphenyl)-1-oxopropan-2-aminium Trifluoroacetate] | DNS | 57 ± 6% | 46.3 ± 9.7 nM | 126 ± 20% | DNS | 57±6% | 6.1 ± 3.1 nM | 0.23 ± 0.02 nM | Potency, EC50 KOR (human KOR [1]; Table 2): DNS; Potency, EC50 KOR (human KOR [1]; Table 5): DNS
4 | Cc1cc(O)cc(C)c1C[C@H](N)C(=O)NCCOCCN1CCc2ccccc2C1.O=C(O)C(F)(F)F [J, (S)-1-((2-(2-(3,4-Dihydroisoquinolin-2(1H)-yl)ethoxy)ethyl)amino)-3-(4-hydroxy-2,6-dimethylphenyl)-1-oxopropan-2-aminium Trifluoroacetate] | – | – | – | 90.7% | 22.0±3.8% | 27.4±8.2% | – | – | Efficacy (% Stimulation) MOR (human MOR [4]; Table 5): 90.7±3.6%
5 | Cc1cc(O)cc(C)c1C[C@H](N)C(=O)NCc1cccc(CN2CCCCC2)c1.O=C(O)C(F)(F)F [A, (S)-3-(4-Hydroxy-2,6-dimethylphenyl)-1-oxo-1-((3-(piperidin-1-ylmethyl)benzyl)amino)propan-2-aminium Trifluoroacetate] | DNS | – | – | – | – | – | > 740 nM | 9.3 ± 1.3 nM | Efficacy DOR, percent maximal stimulation (human DOR [2]): DNS
6 | Cc1cc(O)cc(C)c1C[C@H](N)C(=O)NCCN(C)CCN1CCc2ccccc2C1.O=C(O)C(F)(F)F [N, (S)-1-((2-((2-(3,4-Dihydroisoquinolin-2(1H)-yl)ethyl)(methyl)amino)ethyl)amino)-3-(4-hydroxy-2,6-dimethylphenyl)-1-oxopro-pan-2-aminium Trifluoroacetate] | – | – | – | – | 43.0±2.5% | – | – | – | Efficacy (% Stimulation) MOR (human MOR [4]; Table 5): 80.0±9.5%; EC50 (human MOR [4]; read-out: Potency, EC50 MOR, Table 5, [35S]GTPγS stimulation): 24 ± 10 nM; Ki (human DOR [6]; read-out: Binding Affinity, Ki DOR, Table 4, simple core compounds, mean ± SEM): 77 ± 45 nM; Ki (human MOR [5]; read-out: Binding Affinity, Ki MOR, Table 4, simple core compounds, mean ± SEM): 1.7 ± 0.39 nM; Ki (human KOR [3]; read-out: Binding Affinity, Ki KOR, Table 4, simple core compounds, mean ± SEM): 8.5 ± 1.1 nM
7 | Cc1cc(O)cc(C)c1C[C@H](N)C(=O)NCC(=O)N(C)CCN1CCc2ccccc2C1.O=C(O)C(F)(F)F [O, (S)-1-((2-((2-(3,4-Dihydroisoquinolin-2(1H)-yl)ethyl)(methyl)amino)-2-oxoethyl)amino)-3-(4-hydroxy-2,6-dimethylphenyl)-1-oxopropan-2-aminium Trifluoroacetate] | – | – | – | 53 ± 17% | DNS | DNS | – | – | –
8 | Cc1cc(O)cc(C)c1C[C@H](N)C(=O)N1CCC(CCN2CCc3ccccc3C2)CC1.O=C(O)C(F)(F)F [L, (S)-1-(4-(2-(3,4-Dihydroisoquinolin-2(1H)-yl)ethyl)piperidin-1-yl)-3-(4-hydroxy-2,6-dimethylphenyl)-1-oxopropan-2-aminium Trifluoroacetate] | – | – | 21 ± 5.9 nM | 73 ± 12% | DNS | DNS | 68 ± 19 nM | 1.64 ± 0.62 nM | Potency, EC50 KOR (human KOR [1]; Table 5): DNS
9 | CCCOc1ccc(CN2CCc3ccccc3C2)cc1CNC(=O)[C@@H](N)Cc1c(C)cc(O)cc1C.O=C(O)C(F)(F)F [G, (S)-1-((5-((3,4-Dihydroisoquinolin-2(1H)-yl)methyl)-2-propoxybenzyl)amino)-3-(4-hydroxy-2,6-dimethylphenyl)-1-oxopropan-2-aminium Trifluoroacetate] | DNS | – | – | – | – | – | 2.6 ± 1.3 nM | 0.22 ± 0.04 nM | Ki (human DOR [6]): 1.4 ± 0.3 nM; Potency EC50 DOR (human DOR [2]; Table 2): DNS; Efficacy DOR, percent maximal stimulation (human DOR [2]): DNS
10 | Cc1cc(O)cc(C)c1C[C@H](N)C(=O)NCCCCCN1CCc2ccccc2C1.O=C(O)C(F)(F)F [I, (S)-1-((5-(3,4-Dihydroisoquinolin-2(1H)-yl)pentyl)amino)-3-(4-hydroxy-2,6-dimethylphenyl)-1-oxopropan-2-aminium Trifluoroacetate] | – | – | 44.2 ± 5.6 nM | 80.8 ± 4.5% | DNS | DNS | 15.4 ± 1.3 nM | 1.5 ± 0.3 nM | Potency, EC50 KOR (human KOR [1]; Table 5): DNS
11 | Cc1cc(O)cc(C)c1C[C@H](N)C(=O)NCCOCC(=O)N1CCc2ccccc2C1.O=C(O)C(F)(F)F [K, (S)-1-((2-(2-(3,4-Dihydroisoquinolin-2(1H)-yl)-2-oxoethoxy)-ethyl)amino)-3-(4-hydroxy-2,6-dimethylphenyl)-1-oxopropan-2-aminium Trifluoroacetate] | – | – | – | – | DNS | DNS | – | – | –
12 | COc1ccc(CN2CCc3ccccc3C2)cc1CNC(=O)[C@@H](N)Cc1c(C)cc(O)cc1C [F, (S)-1-((5-((3,4-Dihydroisoquinolin-2(1H)-yl)methyl)-2-methoxybenzyl)amino)-3-(4-hydroxy-2,6-dimethylphenyl)-1-oxopropan-2-aminium Trifluoroacetate] | – | 29.8 ± 3.5% | 28.4 ± 3.1 nM | – | – | – | 2.9 ± 0.5 nM | 0.16 ± 0.05 nM | Ki (human DOR [6]): 3 ± 0.8 nM; EC50 (human KOR [1]): > 1000 nM; Emax (human KOR [1]; read-out: Efficacy KOR, percent maximal stimulation): > 15%; EC50 (human DOR [2]): 5 ± 0.9 nM
13 | CCCOc1ccc(CN2CCCCC2)cc1CNC(=O)[C@@H](N)Cc1c(C)cc(O)cc1C.O=C(O)C(F)(F)F [C, (S)-3-(4-Hydroxy-2,6-dimethylphenyl)-1-oxo-1-((5-(piperidin-1-ylmethyl)-2-propoxybenzyl)amino)propan-2-aminium Trifluoroacetate] | DNS | 39.9 ± 6.5% | – | – | – | – | – | – | –
14 | Cc1cc(O)cc(C)c1C[C@H](N)C(=O)NCc1cc(CN2CCc3ccccc3C2)ccc1OCC1CC1.O=C(O)C(F)(F)F [H, (S)-1-((2-(Cyclopropylmethoxy)-5-((3,4-dihydroisoquinolin-2(1H)-yl)methyl)benzyl)amino)-3-(4-hydroxy-2,6-dimethylphenyl)-1-oxopropan-2-aminium Trifluoroacetate] | DNS | – | 23.5 ± 3.6 nM | – | – | – | 1.6 ± 0.5 nM | 0.05 ± 0.01 nM | Ki (human DOR [6]): 3.6 ± 0.9 nM; Potency, EC50 KOR (human KOR [1]; Table 2): DNS; Potency EC50 DOR (human DOR [2]; Table 2): DNS; Efficacy DOR, percent maximal stimulation (human DOR [2]): DNS
15 | Cc1cc(O)cc(C)c1C[C@H](N)C(=O)N1CCN(CCN2CCc3ccccc3C2)CC1.O=C(O)C(F)(F)F [M, (S)-1-(4-(2-(3,4-Dihydroisoquinolin-2(1H)-yl)ethyl)piperazin-1-yl)-3-(4-hydroxy-2,6-dimethylphenyl)-1-oxopropan-2-aminium Trifluoroacetate] | – | – | – | 70 ± 16% | DNS | DNS | 56 ± 17 nM | 3.59 ± 0.4 nM | Ki (human DOR [6]): 16.6 ± 4.9 nM; Potency EC50 DOR (human DOR [2]; Table 5): DNS
16 | Cc1cc(O)cc(C)c1C[C@H](N)C(=O)NCc1cc(CN2CCCCC2)ccc1OCC1CC1.O=C(O)C(F)(F)F [D, (S)-1-((2-(Cyclopropylmethoxy)-5-(piperidin-1-ylmethyl)benzyl)amino)-3-(4-hydroxy-2,6-dimethylphenyl)-1-oxopropan-2-aminium Trifluoroacetate] | DNS | 17.7 ± 4.4% | – | – | – | – | – | – | –
